According to patent US20140107170A1, “COMPOSITION COMPRISING ANGIOTENSIN II RECEPTOR ANTAGONIST AND ANTIOXIDANT FOR MAINTAINING AND/OR IMPROVING SKIN PROPERTIES” (priority 2011, published 2014):

System: Dermal fibroblast cells
Test: Dermal fibroblast survival under oxidative stress (H2O2), MTS viability test, Example 3
Type: cell-based
Conditions: preincubation till the next day, H2O2 (1 mmol) 15 minutes, MTS after 24 hours, valsartan 1.0 μmol, vitamin A 1 μmol, vitamin C 100 μmol, vitamin E 10 μmol
Description: Dermal fibroblast cells were grown in Advanced MEM supplemented with antibiotics (penicillin-streptomycin), 5% fetal bovine serum and L-glutamine (2 mmol/l) at 37° C. in a CO2 incubator (5% CO2, 95% air, 95% relative humidity. Cells were detached with Tryple™select. For experiments the cells were seeded in 96-well microtitre plates at a density 5×10^3 cells/well (5×10^4 cells/ml). Two hours after seeding, when the cells attached to the surface, the medium was replaced with the medium supplemented with vitamins (ACE), valsartan or their combination. The cells were incubated till the next day and then treated with H2O2 (1 mmol) for 15 minutes. After the treatment with H2O2 the cells were washed three times with PBS and than incubated in medium for 24 hours. Then the MTS viability test was performed.

CCCCC(=O)N(Cc1ccc(-c2ccccc2-c2nnn[nH]2)cc1)[C@H](C(=O)O)C(C)C [Valsartan, valsartan]
% of survival after treatment with H2O2: 79% | % of survival after treatment with H2O2 (listed as valsartan): 79%
